In general, MIC refers to the smallest concentration in the dilution series that meets the test's criterion for growth inhibition. Usually IC50 stands for the concentration that inhibits the measured activity by half. By inhibition is commonly meant the share of the control response that was lost under treatment.

Test [1] deals with Staphylococcus aureus. Put plainly: Antibacterial activity against Meticillin-Sensitive Staphylococcus aureus assessed as bacterial growth inhibtion incubated for 4 to 6 hrs by broth microdilution method. The class given is functional. Particulars: time 4-6 hrs. For orientation: Dilution methods test growth across graded concentrations, often in twofold steps.
The target in test [2] is T1, Cell division protein FtsZ (Staphylococcus aureus, UniProt P0A031).
T1 sequence (P0A031 whole entry): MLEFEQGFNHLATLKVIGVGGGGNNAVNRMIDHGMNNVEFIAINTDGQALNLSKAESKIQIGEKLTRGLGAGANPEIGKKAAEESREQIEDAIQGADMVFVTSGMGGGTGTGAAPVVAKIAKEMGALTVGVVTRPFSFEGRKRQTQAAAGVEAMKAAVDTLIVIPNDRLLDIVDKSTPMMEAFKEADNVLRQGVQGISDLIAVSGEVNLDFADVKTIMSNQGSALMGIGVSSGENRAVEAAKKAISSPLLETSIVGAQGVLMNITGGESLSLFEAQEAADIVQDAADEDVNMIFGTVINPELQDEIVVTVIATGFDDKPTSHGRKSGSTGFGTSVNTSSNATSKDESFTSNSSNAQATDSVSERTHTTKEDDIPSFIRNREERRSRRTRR
Kind of test: Inhibition of Staphylococcus aureus recombinant FTsZ preincubated for 10 mins followed by compound addition measured after 30 mins by Cytophos phosphate assay.

Test [3] deals with Staphylococcus aureus. Kind of test: Antibacterial activity against Meticillin-Resistant Staphylococcus aureus assessed as bacterial growth inhibtion incubated for 14 to 16 hrs. The format is functional. The following applies: time 14-16 hrs.
The test system of test [4] is Staphylococcus aureus. Put plainly: Antibacterial activity against Meticillin-Sensitive Staphylococcus aureus assessed as bacterial growth inhibtion incubated for 14 to 16 hrs. The format is functional. Particulars: time 14-16 hrs.
Test [5] relates to Staphylococcus aureus. Put plainly: Antibacterial activity against Meticillin-Sensitive Staphylococcus aureus assessed as bacterial growth inhibtion by resazurin colorimetric assay. The format is functional.
Test [6] deals with Staphylococcus aureus. Kind of test: Antibacterial activity against Meticillin-Resistant Staphylococcus aureus assessed as bacterial growth inhibtion by resazurin colorimetric assay. The class given is functional. (Alamar Blue is a resazurin reagent that responds to reducing activity.)
The subject of another test is Burkholderia cepacia. Kind of test: Antibacterial activity against Burkholderia cepacia assessed as bacterial growth inhibition by checkerboard assay. The format is functional.
The subject of test [7] is Staphylococcus aureus. Kind of test: Antibacterial activity against Meticillin-Resistant Staphylococcus aureus assessed as bacterial growth inhibtion. The format is functional.
For test [8], the system named is Staphylococcus aureus. Kind of test: Antibacterial activity against Meticillin-Sensitive Staphylococcus aureus assessed as bacterial growth inhibtion. The format is functional.
Test [9] in a line: Inhibition of FTsZ (unknown origin). Set-up: […].
The subject of another test is Macrococcus caseolyticus. Kind of test: Antibacterial activity against Macrococcus caseolyticus assessed as bacterial growth inhibition. The format is functional. The following applies: Macrococcoides caseolyticum.
The next test deals with Escherichia coli. Kind of test: Antibacterial activity against Escherichia coli assessed as bacterial growth inhibition. The class given is functional.
The next test relates to Pseudomonas aeruginosa. Put plainly: Antibacterial activity against Pseudomonas aeruginosa assessed as bacterial growth inhibition. The format is functional.
The test system of test [10] is Staphylococcus aureus. Kind of test: Antibacterial activity against Staphylococcus aureus assessed as bacterial growth inhibition. The class given is functional.
The target in test [11] is T2, Cell division protein FtsZ (Escherichia coli K-12, UniProt P0A9A6).
T2 sequence (P0A9A6 whole entry): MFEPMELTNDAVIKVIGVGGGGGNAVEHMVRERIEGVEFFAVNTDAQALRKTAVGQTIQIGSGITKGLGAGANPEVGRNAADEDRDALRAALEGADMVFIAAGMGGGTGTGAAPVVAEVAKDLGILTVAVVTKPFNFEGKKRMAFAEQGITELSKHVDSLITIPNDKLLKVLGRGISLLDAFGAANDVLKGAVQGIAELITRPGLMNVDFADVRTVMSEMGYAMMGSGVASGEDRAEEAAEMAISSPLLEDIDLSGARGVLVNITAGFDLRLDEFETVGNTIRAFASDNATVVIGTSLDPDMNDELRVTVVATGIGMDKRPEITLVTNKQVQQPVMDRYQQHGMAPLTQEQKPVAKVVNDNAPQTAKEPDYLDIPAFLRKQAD
Put plainly: Inhibition of Escherichia coli recombinant FTsZ incubated for 10 mins in presence of GTP by spectrofluorimeter analysis.

The test system of test [12] is Staphylococcus aureus. Kind of test: Antibacterial activity against Meticillin-Resistant Staphylococcus aureus assessed as bacterial growth inhibtion incubated for 24 hrs by broth microdilution method. The class given is functional.
For test [13], the system named is Staphylococcus aureus. Put plainly: Antibacterial activity against Meticillin-Sensitive Staphylococcus aureus assessed as bacterial growth inhibtion incubated for 24 hrs by broth microdilution method. The class given is functional.
Test [14] concerns Staphylococcus aureus. Put plainly: Antibacterial activity against Meticillin-Sensitive Staphylococcus aureus assessed as bacterial growth inhibtion incubated for 18 hrs by broth microdilution method. The format is functional.
In test [15] the test system is Staphylococcus aureus. Kind of test: Antibacterial activity against Meticillin-Resistant Staphylococcus aureus assessed as bacterial growth inhibtion incubated for 18 hrs by broth microdilution method. The format is functional.
Test [16] deals with T3, Cell division protein FtsZ (Staphylococcus aureus) (UniProt P0A031).
T3 sequence (whole entry): T1 sequence (P0A031 whole entry)
Kind of test: Inhibition of Staphylococcus aureus recombinant FTsZ at 50 uM by GTPase activity assay relative to control.

Values after ≈ are worked out from the molar mass of the structure shown.

`CCC(CC)c1cc([C@H]2CN3CC[C@H]2C[C@@H]3CNCc2ccc(CO)o2)nc(-c2ccncc2)n1`: the MIC in the test on Staphylococcus aureus [1] worked out at 50.5 µM (≈ 24 µg/mL). In addition, in [2], the IC50 was found to be 77.2 µM.
With `CCN(CC)CCNc1nc(/C=C/c2ccc(Cl)cc2)nc2cc3ccccc3cc12`, the MIC was found to be 10 mg/L (≈ 23.2 µM) with Staphylococcus aureus [3] and 5 mg/L (≈ 11.6 µM) in the test with Staphylococcus aureus [4].
For `COC(=O)CSc1ccc2nsnc2c1[N+](=O)[O-]`, the minimum inhibitory concentration (MIC) in the test with Staphylococcus aureus [5] was 2 mg/L (≈ 7.01 µM); in the test with Staphylococcus aureus [6], 2 mg/L (≈ 7.01 µM); with Burkholderia cepacia it was 8 mg/L.
For `NC(=O)c1c(F)ccc(OCc2nc3cc(Cl)cnc3s2)c1F`, the MIC in the test on Staphylococcus aureus [7] and in the test on Staphylococcus aureus [8] was 1 mg/L (≈ 2.81 µM) in each case. In [9], this compound showed an IC50 of 0.055 mg/L (≈ 0.155 µM).
On to `Cc1n(Cc2ccccc2)c2ccccc2[n+]1Cc1ccc(Cl)c(Cl)c1`, for which the minimal inhibitory concentration (MIC) with Staphylococcus aureus [8], in the test on Macrococcus caseolyticus, in the test with Escherichia coli, in the test on Pseudomonas aeruginosa and in the test with Staphylococcus aureus [10] was 5 mg/L each time.
In the case of `C[n+]1cc2c3c(ccc2c2ccc4cc5c(cc4c21)OCO5)OCO3` [SANGUINARIUM], the IC50 in test [11] stood at 3 µM.
For the compound `CCC(CC)c1cc([C@H]2CN3CC[C@H]2C[C@@H]3CNCc2ccco2)nc(-c2ccncc2)n1`, the MIC with Staphylococcus aureus [1] was 26.9 µM (≈ 12 µg/mL). Also, the IC50 in [2] turned out to be 55.7 µM.
For `Cc1nc(-c2cccs2)cc([C@H]2CN3CC[C@H]2C[C@@H]3CNC(=O)CCCC(=O)O)n1` the same measures were 897 µM (≈ 384 µg/mL) and 317 µM.
For `CN(C)CNC(=O)c1c(F)ccc(OCc2nc3cc(Cl)ccc3s2)c1F`, the MIC in the test with Staphylococcus aureus [12] and with Staphylococcus aureus [13] was 0.5 mg/L (≈ 1.21 µM) each time.
As for `CCC(CC)c1cc([C@H]2CN3CC[C@H]2C[C@@H]3CN)nc(-c2ccncc2)n1`, the MIC in the test with Staphylococcus aureus [1] is 24.6 µM (≈ 8.99 µg/mL).
As for `COc1ccc2cc3[n+](cc2c1OCCCOc1ccc(Cl)cc1)CCc1cc2c(cc1-3)OCO2.[Br-]`, the MIC in the test with Staphylococcus aureus [14] and in the test with Staphylococcus aureus [15] was 2 mg/L each time.
In the case of `Cc1ccc(/C=C/c2nc(/C=C3\Sc4ccccc4N3CCCN3CCC(C)CC3)c3ccccc3[n+]2C)cc1.[I-]`, the MIC in the test with Staphylococcus aureus [14] and in the test with Staphylococcus aureus [15] was 2 mg/L throughout.
Take `Cc1n(Cc2ccc(Cl)cc2)c2ccccc2[n+]1Cc1ccc(Cl)cc1`: the minimal inhibitory concentration (MIC) with Staphylococcus aureus [8], in the test on Macrococcus caseolyticus, with Escherichia coli, in the test on Pseudomonas aeruginosa and in the test on Staphylococcus aureus [10] was 5 mg/L each time.
For the compound `Cc1n(Cc2ccc(Cl)c(Cl)c2)c2ccccc2[n+]1Cc1ccc(Cl)c(Cl)c1`, the MIC in the test with Staphylococcus aureus [8], in the test with Macrococcus caseolyticus, in the test with Escherichia coli, in the test on Pseudomonas aeruginosa and in the test on Staphylococcus aureus [10] was 5 mg/L throughout.
On to `COc1ccc2cc3[n+](cc2c1OC)CCc1cc2c(cc1-3)OCO2` [BERBERINE], for which the IC50 in test [2] turned out to be 10 µM.
Turning to `Cc1ccc(/C=C/c2nc(/C=C3\Sc4ccccc4N3C)c3ccccc3[n+]2C)cc1.[I-]`, the MIC with Staphylococcus aureus [14] and in the test with Staphylococcus aureus [15] was 2 mg/L throughout.
Take `CCC(CC)c1cc(CCN2CCCN(Cc3ccc(C(F)(F)F)cc3)CC2)nc(-c2ccncc2)n1`: the figures for the MIC with Staphylococcus aureus [7] and in the test with Staphylococcus aureus [8] were 6 mg/L (≈ 11.7 µM) and 3 mg/L (≈ 5.86 µM), respectively. The inhibition in test [16] was found to be 20%.

Values taken from ChEMBL document CHEMBL5233228, “The cell division protein FtsZ as a cellular target to hit cystic fibrosis pathogens” (Eur J Med Chem, 2020).
